From PubChem BioAssay AID1259407 (Chemical Carcinogenesis Research Information System (CCRIS), 2018)
The source made the active and inactive calls. The rule behind the calls is not given here.

System: CCRIS mutagenicity, Ames/micronucleus/aberration tests
Assay: CCRIS mutagenicity studies
[1] = Test System: AMES SALMONELLA TYPHIMURIUM, Strain/Indicator: TA98, Metabolic Activation: HAMSTER, LIVER, S-9, AROCLOR 1254, Method: STANDARD PLATE
[2] = Test System: AMES SALMONELLA TYPHIMURIUM, Strain/Indicator: TA98, Metabolic Activation: NONE, Method: STANDARD PLATE
[3] = Test System: AMES SALMONELLA TYPHIMURIUM, Strain/Indicator: TA98, Metabolic Activation: RAT, LIVER, S-9, AROCLOR 1254, Method: STANDARD PLATE
[4] = Test System: AMES SALMONELLA TYPHIMURIUM, Strain/Indicator: TA100, Metabolic Activation: HAMSTER, LIVER, S-9, AROCLOR 1254, Method: STANDARD PLATE
[5] = Test System: AMES SALMONELLA TYPHIMURIUM, Strain/Indicator: TA100, Metabolic Activation: NONE, Method: STANDARD PLATE
[6] = Test System: AMES SALMONELLA TYPHIMURIUM, Strain/Indicator: TA100, Metabolic Activation: RAT, LIVER, S-9, AROCLOR 1254, Method: STANDARD PLATE
[7] = Test System: AMES SALMONELLA TYPHIMURIUM, Strain/Indicator: TA1535, Metabolic Activation: HAMSTER, LIVER, S-9, AROCLOR 1254, Method: STANDARD PLATE
[8] = Test System: AMES SALMONELLA TYPHIMURIUM, Strain/Indicator: TA1535, Metabolic Activation: NONE, Method: STANDARD PLATE
[9] = Test System: AMES SALMONELLA TYPHIMURIUM, Strain/Indicator: TA1535, Metabolic Activation: RAT, LIVER, S-9, AROCLOR 1254, Method: STANDARD PLATE
[10] = Test System: AMES SALMONELLA TYPHIMURIUM, Strain/Indicator: TA1537, Metabolic Activation: HAMSTER, LIVER, S-9, AROCLOR 1254, Method: STANDARD PLATE
[11] = Test System: AMES SALMONELLA TYPHIMURIUM, Strain/Indicator: TA1537, Metabolic Activation: NONE, Method: STANDARD PLATE
[12] = Test System: AMES SALMONELLA TYPHIMURIUM, Strain/Indicator: TA1537, Metabolic Activation: RAT, LIVER, S-9, AROCLOR 1254, Method: STANDARD PLATE
[13] = Test System: AMES SALMONELLA TYPHIMURIUM, Strain/Indicator: TA1538, Metabolic Activation: HAMSTER, LIVER, S-9, AROCLOR 1254, Method: STANDARD PLATE
[14] = Test System: AMES SALMONELLA TYPHIMURIUM, Strain/Indicator: TA1538, Metabolic Activation: NONE, Method: STANDARD PLATE
[15] = Test System: AMES SALMONELLA TYPHIMURIUM, Strain/Indicator: TA1538, Metabolic Activation: RAT, LIVER, S-9, AROCLOR 1254, Method: STANDARD PLATE
[16] = Test System: MOUSE LYMPHOMA, Strain/Indicator: L5178Y (TK+/TK-), Metabolic Activation: NONE, Method: SUSPENSION/PLATE
[17] = Test System: MOUSE LYMPHOMA, Strain/Indicator: L5178Y (TK+/TK-), Metabolic Activation: RAT, LIVER, S-9, AROCLOR 1254, Method: SUSPENSION/PLATE

Row | Structure (SMILES) | mutagenic call [1] | mutagenic call [2] | mutagenic call [3] | mutagenic call [4] | mutagenic call [5] | mutagenic call [6] | mutagenic call [7] | mutagenic call [8] | mutagenic call [9] | mutagenic call [10] | mutagenic call [11] | mutagenic call [12] | mutagenic call [13] | mutagenic call [14] | mutagenic call [15] | mutagenic call [16] | mutagenic call [17] | also measured
1 | O=C(O)c1cc(=O)c2c(OCC(O)COc3cccc4oc(C(=O)O)cc(=O)c34)cccc2o1 | inactive; negative | inactive; negative | inactive; negative | inactive; negative | inactive; negative | inactive; negative | inactive; negative | inactive; negative | inactive; negative | inactive; negative | inactive; negative | inactive; negative | inactive; negative | inactive; negative | inactive; negative | inactive; negative; reevaluation of results: negative | inactive; negative. reevaluation of results: negative | mutagenic call (Test System: AMES SALMONELLA TYPHIMURIUM, Strain/Indicator: TA97, Metabolic Activation: HAMSTER, LIVER, S-9, AROCLOR 1254, Method: STANDARD PLATE): inactive; negative; mutagenic call (Test System: AMES SALMONELLA TYPHIMURIUM, Strain/Indicator: TA97, Metabolic Activation: NONE, Method: STANDARD PLATE): inactive; negative; mutagenic call (Test System: AMES SALMONELLA TYPHIMURIUM, Strain/Indicator: TA97, Metabolic Activation: RAT, LIVER, S-9, AROCLOR 1254, Method: STANDARD PLATE): inactive; negative; mutagenic call (Test System: AMES SALMONELLA TYPHIMURIUM, Strain/Indicator: TA98, Metabolic Activation: HAMSTER, LIVER, S-9, AROCLOR 1254 (2.5-20%), Method: STANDARD PLATE): inactive; negative; mutagenic call (Test System: AMES SALMONELLA TYPHIMURIUM, Strain/Indicator: TA98, Metabolic Activation: RAT, LIVER, S-9, AROCLOR 1254 (2.5-20%), Method: STANDARD PLATE): inactive; negative; mutagenic call (Test System: AMES SALMONELLA TYPHIMURIUM, Strain/Indicator: TA1538, Metabolic Activation: HAMSTER, LIVER, S-9, AROCLOR 1254 (2.5-20%), Method: STANDARD PLATE): inactive; negative; mutagenic call (Test System: AMES SALMONELLA TYPHIMURIUM, Strain/Indicator: TA1538, Metabolic Activation: RAT, LIVER, S-9, AROCLOR 1254 (2.5-20%), Method: STANDARD PLATE): inactive; negative
2 | CSCCCCC(=NOS(=O)(=O)O)S[C@@H]1O[C@H](CO)[C@@H](O)[C@H](O)[C@H]1O | – | – | – | – | – | – | – | – | – | – | – | – | – | – | – | – | – | mutagenic call (End Point: IN VITRO MICRONUCLEUS, Test System: HUMAN T-LYMPHOCYTES, Metabolic Activation: NONE): inactive; negative
3 | Fc1cc2cccnc2c2ccccc12 | – | – | – | – | – | – | – | – | – | – | – | – | – | – | – | – | – | mutagenic call (Test System: AMES SALMONELLA TYPHIMURIUM, Strain/Indicator: TA100, Metabolic Activation: RAT, LIVER, S-9, PHENOBARBITAL AND 5,6-BENZOFLAVONE, Method: PREINCUBATION): active; positive
4 | CN1CCNCC1 | – | – | – | – | – | – | – | – | – | – | – | – | – | – | – | – | – | mutagenic call (Test System: AMES SALMONELLA TYPHIMURIUM, Strain/Indicator: TA98, Metabolic Activation: NONE, Method: PREINCUBATION): inactive; negative; mutagenic call (Test System: AMES SALMONELLA TYPHIMURIUM, Strain/Indicator: TA98, Metabolic Activation: RAT, LIVER, S-9, PCB, Method: PREINCUBATION): inactive; negative; mutagenic call (Test System: AMES SALMONELLA TYPHIMURIUM, Strain/Indicator: TA100, Metabolic Activation: NONE, Method: PREINCUBATION): inactive; negative; mutagenic call (Test System: AMES SALMONELLA TYPHIMURIUM, Strain/Indicator: TA100, Metabolic Activation: RAT, LIVER, S-9, PCB, Method: PREINCUBATION): inactive; negative
5 | Nc1ncc2[nH]cnc2n1 | – | inactive; negative | – | – | inactive; negative | – | – | – | – | – | – | – | – | – | – | active; positive | – | mutagenic call (Test System: CHINESE HAMSTER V-79, Strain/Indicator: V-79 (HGPRT)/6-THIOGUANINE, Metabolic Activation: NONE, Method: STANDARD PLATE): active; positive; mutagenic call (Test System: E. COLI, Strain/Indicator: WP2, Metabolic Activation: NONE, Method: STANDARD PLATE): active; positive; mutagenic call (Test System: E. COLI, Strain/Indicator: WP2 UVRA, Metabolic Activation: NONE, Method: STANDARD PLATE): active; positive
6 | O=C1C=CC(=O)CC(=O)C1 | inactive; negative | inactive; negative | inactive; negative | inactive; negative | inactive; negative | inactive; negative | inactive; negative | inactive; negative | inactive; negative | inactive; negative | inactive; negative | inactive; negative | inactive; negative | inactive; negative | inactive; negative | active; positive. reevaluation of results: positive | inactive; negative. reevaluation of results: negative | –
7 | Cc1cccc(NC(=O)c2csc([N+](=O)[O-])c2)c1 | – | active; positive | – | – | active; positive | – | – | – | – | – | – | – | – | – | – | – | – | –
8 | [O-][n+]1cccc2c1C=C[C@H]1O[C@@H]21 | – | – | – | – | inactive; negative | – | – | – | – | – | – | – | – | – | – | – | – | mutagenic call (Test System: AMES SALMONELLA TYPHIMURIUM, Strain/Indicator: TA100, Metabolic Activation: RAT, LIVER, S-9, AROCLOR 1254 (10% OR 20%), Method: STANDARD PLATE): inactive; negative
9 | O=S(=O)(O)c1c(N=Nc2c(O)ccc3ccccc23)ccc2ccccc12 | active; positive | active; positive | inactive; negative | active; positive | inactive; negative | inactive; negative | active; positive | inactive; negative | inactive; negative | – | inactive; negative | – | active; positive | inactive; negative | inactive; negative | inactive; negative. reevaluation of results: inconclusive | inactive; negative. reevauluation of results: negative | mutagenic call (Test System: AMES SALMONELLA TYPHIMURIUM, Strain/Indicator: TA98, Metabolic Activation: HAMSTER, LIVER, S-9, Method: PREINCUBATION (PRIVAL METHOD)): inactive; negative
10 | CC/C=C\C/C=C\C/C=C\CCCCCCCC(=O)O | inactive; negative | inactive; negative | inactive; negative | inactive; negative | inactive; negative | inactive; negative | inactive; negative | inactive; negative | inactive; negative | inactive; negative | inactive; negative | inactive; negative | inactive; negative | inactive; negative | inactive; negative | inactive; negative. reevaluation of results: inconclusive | inactive; negative. reevaluation of results: negative | –
